Measurements from patent publication US10131652B2, “Pyrimidinyloxy benzene derivatives as herbicides” (E. I. DU PONT DE NEMOURS AND COMPANY, priority 2014, dated 2018).
Where two headings read alike, the source gives them in different places.

What was measured:
Assay in all cases: Test E pre-/postemergence plant response
Type in all cases: in vivo
[1] = test system: kochia (Kochia scoparia); details: Bassia scoparia, scale 0 to 100, read-out: Plant response rating, Kochia; for pest or weed control at 16 g/ha: 16 g ai/ha; for pest or weed control at 31 g/ha: 31 g ai/ha; for pest or weed control at 62 g/ha: 62 g ai/ha; for pest or weed control at 125 g/ha: 125 g ai/ha
How it was run: (§1)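 Pre-emergence: seeds sown in silt loam soil and sprayed with test chemicals in a non-phytotoxic solvent/surfactant mix. Post-emergence: plants at 2–18 cm (1- to 4-leaf stage) in peat/vermiculite medium treated with the same formulation. Visual rating versus controls after 7–21 days, 0 (no effect) to 100 (complete control).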

[2] = test system: chamomile (scentless chamomile, Matricaria inodora); details: Tripleurospermum inodorum, scale 0 to 100, read-out: Plant response rating, Chamomile; for pest or weed control at 16 g/ha: 16 g ai/ha; for pest or weed control at 31 g/ha: 31 g ai/ha; for pest or weed control at 62 g/ha: 62 g ai/ha; for pest or weed control at 125 g/ha: 125 g ai/ha
How it was run: as §1

[3] = test system: winter wheat (Triticum aestivum); details: scale 0 to 100, read-out: Plant response rating, Wheat, Winter; for plant injury at 16 g/ha: 16 g ai/ha; for plant injury at 62 g/ha: 62 g ai/ha; for plant injury at 125 g/ha: 125 g ai/ha
How it was run: as §1

[4] = test system: field poppy (Papaver rhoeas); details: scale 0 to 100, read-out: Plant response rating, Field Poppy; for pest or weed control at 16 g/ha: 16 g ai/ha; for pest or weed control at 31 g/ha: 31 g ai/ha; for pest or weed control at 62 g/ha: 62 g ai/ha; for pest or weed control at 125 g/ha: 125 g ai/ha
How it was run: as §1

[5] = test system: spring wheat (Triticum aestivum); details: scale 0 to 100, read-out: Plant response rating, Wheat, Spring; for plant injury at 16 g/ha: 16 g ai/ha; for plant injury at 62 g/ha: 62 g ai/ha; for plant injury at 125 g/ha: 125 g ai/ha
How it was run: as §1

[6] = test system: downy bromegrass (Bromus tectorum); details: post-emergence, Postemergence, scale 0 to 100, read-out: Plant response rating, Bromegrass, Downy
How it was run: as §1

[7] = post-emergence, 31 g ai/ha, Postemergence

Fc1cccc(Oc2ncc(Cl)cn2)c1-c1cc(C(F)F)no1 [Compound 144, 5-chloro-2-[2-[3-(difluoromethyl)-5-isoxazolyl]-3-fluorophenoxy]pyrimidine]
pest or weed control at 16 g/ha ([1]; post-emergence, Postemergence): 100% | pest or weed control at 31 g/ha ([1]; post-emergence, Postemergence): 100% | pest or weed control at 62 g/ha ([1]; post-emergence, Postemergence): 100% | pest or weed control at 125 g/ha ([1]; post-emergence, Postemergence): 100% | pest or weed control at 16 g/ha ([1]; pre-emergence, Preemergence): 98% | pest or weed control at 31 g/ha ([1]; pre-emergence, Preemergence): 100% | pest or weed control at 62 g/ha ([1]; pre-emergence, Preemergence): 100% | pest or weed control at 125 g/ha ([1]; pre-emergence, Preemergence): 100% | pest or weed control at 16 g/ha ([2]; post-emergence, Postemergence): 80% | pest or weed control at 31 g/ha ([2]; post-emergence, Postemergence): 75% | pest or weed control at 62 g/ha ([2]; post-emergence, Postemergence): 80% | pest or weed control at 125 g/ha ([2]; post-emergence, Postemergence): 95% | pest or weed control at 16 g/ha ([2]; pre-emergence, Preemergence): 15% | pest or weed control at 31 g/ha ([2]; pre-emergence, Preemergence): 20% | pest or weed control at 62 g/ha ([2]; pre-emergence, Preemergence): 100% | pest or weed control at 125 g/ha ([2]; pre-emergence, Preemergence): 100% | plant injury at 16 g/ha ([3]; post-emergence, Postemergence): 20% | plant injury at 31 g/ha [3, 7]: 30% | plant injury at 62 g/ha ([3]; post-emergence, Postemergence): 35% | plant injury at 125 g/ha ([3]; post-emergence, Postemergence): 70% | plant injury at 16 g/ha ([3]; pre-emergence, Preemergence): 0% | plant injury at 62 g/ha ([3]; pre-emergence, Preemergence): 25% | plant injury at 125 g/ha ([3]; pre-emergence, Preemergence): 35% | pest or weed control at 16 g/ha ([4]; post-emergence, Postemergence): 100% | pest or weed control at 31 g/ha ([4]; post-emergence, Postemergence): 100% | pest or weed control at 62 g/ha ([4]; post-emergence, Postemergence): 100% | pest or weed control at 125 g/ha ([4]; post-emergence, Postemergence): 100% | pest or weed control at 16 g/ha ([4]; pre-emergence, Preemergence): 100% | pest or weed control at 31 g/ha ([4]; pre-emergence, Preemergence): 100% | pest or weed control at 62 g/ha ([4]; pre-emergence, Preemergence): 100% | pest or weed control at 125 g/ha ([4]; pre-emergence, Preemergence): 100% | plant injury at 16 g/ha ([5]; post-emergence, Postemergence): 25% | plant injury at 31 g/ha [5, 7]: 35% | plant injury at 62 g/ha ([5]; post-emergence, Postemergence): 45% | plant injury at 125 g/ha ([5]; post-emergence, Postemergence): 75% | plant injury at 16 g/ha ([5]; pre-emergence, Preemergence): 5% | plant injury at 62 g/ha ([5]; pre-emergence, Preemergence): 40% | plant injury at 125 g/ha ([5]; pre-emergence, Preemergence): 55% | pest or weed control at 16 g/ha ([6]; 16 g ai/ha): 25% | pest or weed control at 31 g/ha ([6]; 31 g ai/ha): 35% | pest or weed control at 62 g/ha ([6]; 62 g ai/ha): 40% | pest or weed control at 125 g/ha ([6]; 125 g ai/ha): 75%
